Results published in patent US20210330611A1, “THERAPY FOR NEUROLOGICAL DISEASES/DISORDERS” (priority 2020, published 2021).
Structures can show the parent of a compound that is named as a salt. Where two headings read alike, the source gives them in different places.

Key:
primary rat microglia [1] = assay: Cell toxicity (dead cells, size <150 μm2) in LPS assay; details: primary microglia HTS
[2] = tested on: LPS-induced microglia activation; assay: Image-based assay of LPS-induced microglia activation (HTS and dose response); assay type: cell-based, rat; details: primary microglia HTS; for inhibition at 10 µM: Rattus norvegicus, Microglia, read-out: LPS % inhibition
[3] = tested on: fibrin- and LPS-induced microglia activation; assay: cells; assay type: cell-based, rat
[4] = tested on: fibrin-induced microglia activation; assay: Image-based assay of fibrin-induced microglia activation (HTS and dose response); assay type: cell-based, rat; details: primary microglia HTS; for inhibition at 10 µM: Rattus norvegicus, Microglia, read-out: Fibrin % inhibition
primary rat microglia [5] = assay: Cell toxicity (dead cells, size <150 μm2) in coated fibrin (cFib) assay; details: primary microglia HTS;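 note: share of dead cells sized under 150 µm2 at 10 µM in fibrin-stimulated microglia HTS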
[6] = 10 μM, LPS assay, cell size <150 μm^2 as marker of toxicity
[7] = 10 μM, LPS-stimulated, cell size >800 μm^2 as marker of activation
[8] = HTS of 1907 compounds, quadrant by fibrin and LPS inhibition
[9] = 10 μM, fibrin-stimulated, cell size >800 μm^2 as marker of activation
[10] = 10 μM, fibrin assay, cell size <150 μm^2 as marker of toxicity

CC1(O)CCC(C(C)(C)O)CC1.O (centres unmarked) [Terpene Hydrate]
LPS % cell toxicity (primary rat microglia [1]; [6]): 0%
LPS % inhibition [2, 7]: 8%
Quadrant (FIG. 5b) [3, 8]: Q4
Fibrin % inhibition [4, 9]: −6%
Fibrin % cell toxicity (primary rat microglia [5]; [10]): 1%

CCCCNc1ccc(C(=O)OCCN(C)C)cc1 [Tetracaine]
LPS % cell toxicity (primary rat microglia [1]; [6]): 1%
inhibition at 10 µM [2, 7]: 9%
Quadrant (FIG. 5b) [3, 8]: Q4
inhibition at 10 µM [4, 9]: 4%
Fibrin % cell toxicity (primary rat microglia [5]; [10]): 1%

O=C1C(O)=C(O)C(=O)C(O)=C1O [Tetraquinone]
LPS % cell toxicity (primary rat microglia [1]; [6]): 0%
LPS % inhibition [2, 7]: 15%
Quadrant (FIG. 5b) [3, 8]: Q4
Fibrin % inhibition [4, 9]: −10%
Fibrin % cell toxicity (primary rat microglia [5]; [10]): 0%

c1ccc2c(c1)CCCC2C1=NCCN1 (centres unmarked) [Tetryzoline]
LPS % cell toxicity (primary rat microglia [1]; [6]): 0%
inhibition at 10 µM [2, 7]: 16%
Quadrant (FIG. 5b) [3, 8]: Q4
inhibition at 10 µM [4, 9]: -29%
Fibrin % cell toxicity (primary rat microglia [5]; [10]): 0%

Cn1cnc2c1c(=O)[nH]c(=O)n2C [Theobromine]
LPS % cell toxicity (primary rat microglia [1]; [6]): 1%
inhibition at 10 µM [2, 7]: 18%
Quadrant (FIG. 5b) [3, 8]: Q4
inhibition at 10 µM [4, 9]: 11%
Fibrin % cell toxicity (primary rat microglia [5]; [10]): 0%

CS(=O)(=O)c1ccc([C@@H](O)[C@@H](CO)NC(=O)C(Cl)Cl)cc1 [Thiamphenicol]
LPS % cell toxicity (primary rat microglia [1]; [6]): 0%
inhibition at 10 µM [2, 7]: 12%
Quadrant (FIG. 5b) [3, 8]: Q4
inhibition at 10 µM [4, 9]: -19%
Fibrin % cell toxicity (primary rat microglia [5]; [10]): 0%

C=CCC1(C(C)CCC)C(=O)N=C(S)NC1=O (centres unmarked) [Thiamylal]
LPS % cell toxicity (primary rat microglia [1]; [6]): 0%
inhibition at 10 µM [2, 7]: 26%
Quadrant (FIG. 5b) [3, 8]: Q4
inhibition at 10 µM [4, 9]: -1%
Fibrin % cell toxicity (primary rat microglia [5]; [10]): 0%

O=c1oc2cc(O)ccc2s1 [Thioxolone, Tioxolone]
LPS % cell toxicity (primary rat microglia [1]; [6]): 0%
LPS % inhibition [2, 7]: 12%
Quadrant (FIG. 5b) [3, 8]: Q4
Fibrin % inhibition [4, 9]: −18%
Fibrin % cell toxicity (primary rat microglia [5]; [10]): 0%

CCCCCCCCCCCCCCCC[N+](C)(C)CCN(Cc1ccc(OC)cc1)c1ncccn1 [Thonzonium Bromide]
LPS % cell toxicity (primary rat microglia [1]; [6]): 1%
inhibition at 10 µM [2, 7]: 19%
Quadrant (FIG. 5b) [3, 8]: Q4
inhibition at 10 µM [4, 9]: -1%
Fibrin % cell toxicity (primary rat microglia [5]; [10]): 0%

N[C@@H](Cc1cc(I)c(Oc2cc(I)c(O)c(I)c2)c(I)c1)C(=O)O [Thyroxine, Levothyroxine]
LPS % cell toxicity (primary rat microglia [1]; [6]): 1%
LPS % inhibition [2, 7]: 25%
Quadrant (FIG. 5b) [3, 8]: Q4
Fibrin % inhibition [4, 9]: 5%
Fibrin % cell toxicity (primary rat microglia [5]; [10]): 1%

CCN(CC)CCNC(=O)c1cc(S(C)(=O)=O)ccc1OC [Tiapride]
LPS % cell toxicity (primary rat microglia [1]; [6]): 0%
inhibition at 10 µM [2, 7]: 6%
Quadrant (FIG. 5b) [3, 8]: Q4
inhibition at 10 µM [4, 9]: -18%
Fibrin % cell toxicity (primary rat microglia [5]; [10]): 0%

C#C[C@]1(O)CC[C@H]2[C@@H]3[C@H](C)CC4=C(CCC(=O)C4)[C@H]3CC[C@@]21C [Tibolone]
LPS % cell toxicity (primary rat microglia [1]; [6]): 0%
inhibition at 10 µM [2, 7]: 4%
Quadrant (FIG. 5b) [3, 8]: Q4
inhibition at 10 µM [4, 9]: -8%
Fibrin % cell toxicity (primary rat microglia [5]; [10]): 0%

CC1(C)S[C@@H]2[C@H](NC(=O)[C@H](C(=O)O)c3ccsc3)C(=O)N2[C@H]1C(=O)O [Ticarcillin Disodium]
LPS % cell toxicity (primary rat microglia [1]; [6]): 0%
inhibition at 10 µM [2, 7]: 7%
Quadrant (FIG. 5b) [3, 8]: Q4
inhibition at 10 µM [4, 9]: -22%
Fibrin % cell toxicity (primary rat microglia [5]; [10]): 0%

CN(C)c1cc(NC(=O)CNC(C)(C)C)c(O)c2c1C[C@H]1C[C@H]3[C@H](N(C)C)C(O)=C(C(N)=O)C(=O)[C@@]3(O)C(O)=C1C2=O [Tigecycline]
LPS % cell toxicity (primary rat microglia [1]; [6]): 0%
inhibition at 10 µM [2, 7]: 13%
Quadrant (FIG. 5b) [3, 8]: Q4
inhibition at 10 µM [4, 9]: 7%
Fibrin % cell toxicity (primary rat microglia [5]; [10]): 0%

CCN(CC)CCOc1ccc2c(c1)C(=O)c1cc(OCCN(CC)CC)ccc1-2 [Tilorone]
LPS % cell toxicity (primary rat microglia [1]; LPS stimulation, decreased size (<150 μm^2) as marker of toxicity): 1%
inhibition at 10 µM ([2]; 48 h, LPS stimulation, increased cell size (>800 μm^2) as marker of activation): 60%
Quadrant (FIG. 5b) ([3]; quadrant by fibrin and LPS inhibition in HTS of 1907 compounds): Q1
inhibition at 10 µM ([4]; fibrin stimulation, increased cell size (>800 μm^2) as marker of activation): -21%
Fibrin % cell toxicity (primary rat microglia [5]; fibrin stimulation, decreased size (<150 μm^2) as marker of toxicity): 0%

CC(C)(C)NC[C@H](O)COc1nsnc1N1CCOCC1 [Timolol Maleate]
LPS % cell toxicity (primary rat microglia [1]; [6]): 0%
LPS % inhibition [2, 7]: 19%
Quadrant (FIG. 5b) [3, 8]: Q4
Fibrin % inhibition [4, 9]: −4%
Fibrin % cell toxicity (primary rat microglia [5]; [10]): 0%

CC(C)(C)NC[C@H](O)COc1nsnc1N1CCOCC1 [Timolol]
LPS % cell toxicity (primary rat microglia [1]; [6]): 0%
LPS % inhibition [2, 7]: −7%
Quadrant (FIG. 5b) [3, 8]: Q4
Fibrin % inhibition [4, 9]: 11%
Fibrin % cell toxicity (primary rat microglia [5]; [10]): 1%

O=C(O)C1CSCN1 (centres unmarked) [Timonacic]
LPS % cell toxicity (primary rat microglia [1]; [6]): 0%
inhibition at 10 µM [2, 7]: 19%
Quadrant (FIG. 5b) [3, 8]: Q4
inhibition at 10 µM [4, 9]: -38%
Fibrin % cell toxicity (primary rat microglia [5]; [10]): 0%

CCS(=O)(=O)CCn1c([N+](=O)[O-])cnc1C [Tinidazole]
LPS % cell toxicity (primary rat microglia [1]; [6]): 1%
inhibition at 10 µM [2, 7]: 14%
Quadrant (FIG. 5b) [3, 8]: Q4
inhibition at 10 µM [4, 9]: 2%
Fibrin % cell toxicity (primary rat microglia [5]; [10]): 0%

CC(S)C(=O)NCC(=O)O (centres unmarked) [Tiopronin]
LPS % cell toxicity (primary rat microglia [1]; [6]): 0%
inhibition at 10 µM [2, 7]: 6%
Quadrant (FIG. 5b) [3, 8]: Q4
inhibition at 10 µM [4, 9]: -8%
Fibrin % cell toxicity (primary rat microglia [5]; [10]): 1%

C[N+]1(C)[C@@H]2C[C@@H](OC(=O)C(O)(c3cccs3)c3cccs3)C[C@H]1[C@@H]1O[C@@H]12 [Tiotropium]
LPS % cell toxicity (primary rat microglia [1]; [6]): 0%
inhibition at 10 µM [2, 7]: -1%
Quadrant (FIG. 5b) [3, 8]: Q4
inhibition at 10 µM [4, 9]: -32%
Fibrin % cell toxicity (primary rat microglia [5]; [10]): 0%

O=C(O)Cc1cc(I)c(Oc2ccc(O)c(I)c2)c(I)c1 [Tiratricol]
LPS % cell toxicity (primary rat microglia [1]; [6]): 0%
inhibition at 10 µM [2, 7]: 13%
Quadrant (FIG. 5b) [3, 8]: Q4
inhibition at 10 µM [4, 9]: -51%
Fibrin % cell toxicity (primary rat microglia [5]; [10]): 1%

NC[C@H]1O[C@H](O[C@H]2[C@H](O)[C@@H](O[C@H]3O[C@H](CO)[C@@H](O)[C@H](N)[C@H]3O)[C@H](N)C[C@@H]2N)[C@H](N)C[C@@H]1O [Tobramycin]
LPS % cell toxicity (primary rat microglia [1]; [6]): 0%
inhibition at 10 µM [2, 7]: 24%
Quadrant (FIG. 5b) [3, 8]: Q4
inhibition at 10 µM [4, 9]: 1%
Fibrin % cell toxicity (primary rat microglia [5]; [10]): 1%

Cc1cccc(C)c1NC(=O)C(C)N (centres unmarked) [Tocainide]
LPS % cell toxicity (primary rat microglia [1]; [6]): 0%
inhibition at 10 µM [2, 7]: 0%
Quadrant (FIG. 5b) [3, 8]: Q4
inhibition at 10 µM [4, 9]: -25%
Fibrin % cell toxicity (primary rat microglia [5]; [10]): 1%

CCOC(=O)NNc1nncc2ccccc12 [Todralazine Hydrochloride]
LPS % cell toxicity (primary rat microglia [1]; [6]): 0%
inhibition at 10 µM [2, 7]: 19%
Quadrant (FIG. 5b) [3, 8]: Q4
inhibition at 10 µM [4, 9]: 0%
Fibrin % cell toxicity (primary rat microglia [5]; [10]): 1%

c1ccc(CC2=NCCN2)cc1 [Tolazoline, Priscoline]
LPS % cell toxicity (primary rat microglia [1]; [6]): 0%
LPS % inhibition [2, 7]: 17%
Quadrant (FIG. 5b) [3, 8]: Q4
Fibrin % inhibition [4, 9]: −90%
Fibrin % cell toxicity (primary rat microglia [5]; [10]): 0%

Cc1cc2nc3ccc(N(C)C)cc3[s+]c2cc1N [Tolonium Chloride]
LPS % cell toxicity (primary rat microglia [1]; [6]): 1%
inhibition at 10 µM [2, 7]: 43%
Quadrant (FIG. 5b) [3, 8]: Q4
inhibition at 10 µM [4, 9]: -4%
Fibrin % cell toxicity (primary rat microglia [5]; [10]): 1%

Cc1ccc(C(=O)C(C)CN2CCCCC2)cc1 (centres unmarked) [Tolperisone]
LPS % cell toxicity (primary rat microglia [1]; [6]): 0%
inhibition at 10 µM [2, 7]: 11%
Quadrant (FIG. 5b) [3, 8]: Q4
inhibition at 10 µM [4, 9]: -7%
Fibrin % cell toxicity (primary rat microglia [5]; [10]): 1%
